According to patent US9878046B2, “Adverse side-effects associated with administration of an anti-hyaluronan agent and methods for ameliorating or preventing the side-effects” (Halozyme, Inc., priority 2010, dated 2018):

What was measured:
[1] = test system: BxPC3 pancreatic cancer cell line; experiment: Antitumor activity in BxPC3 pancreatic cancer xenograft model; type: in vivo, human (xenograft in athymic female nude mice)
Method: Tumor cells from the BxPC3 pancreatic cancer cell line were grown to approximately 80% confluency, trypsinized, collected, washed once in HBSS (Hank's balance salt solution, Mediatech Inc.), and re-suspended in 50% Matrigel in HBSS at 2×10^7 cells/mL on ice before inoculation into animals. Athymic female nude mice (average weight ˜20 g) were inoculated intramuscularly (IM) with 0.05 mL of cell suspension, peritibially, in the left hind leg (adjacent to the tibia periosteum). The tumors in the animals were assessed twice a week and allowed to grow to a mean tumor volume of approximately 250 mm^3 (Day −1; Table 13). Actual tumor volumes were determined using VisualSonics Vevo 770 high-resolution ultrasound.
The animals were randomly grouped into 6 groups of 8 animals per group (6+2 satellite mice) and treated with vehicle (API buffer), PEGPH20 (157,500 Units/kg, 4.5 mg/kg), low dose dexamethasone (1.25 mg/kg), high dose dexamethasone (5 mg/kg), PEGPH20 (4.5 mg/kg)+low dose dexamethasone (1.25 mg/kg) and PEGPH20 (4.5 mg/kg)+high dose dexamethasone (5 mg/kg). The dose and frequency of the PEGPH20 (or vehicle) intravenous injections was 157,500 Units/kg or approximately 4.5 mg/kg, on Days 0, 3, 7, 10, 13 and 17 for a total of 6 injections starting on Day 0 (dose volume of 0.1 mL). The doses and frequency of the dexamethasone intraperitonal injections was 1.25 mg/kg at the low dose and 5 mg/kg at the high dose, once a day until Day 17 (QDx17) with a dose volume of 0.1 mL.
The tumor volumes of all mice were measured pre-treatment on Days −4 and −1 (mean tumor volume of ˜250 mm^3) and on Days 4, 7, 11, 14 and 17 by capturing images using the VisualSonic ultrasound system and using an ultrasound imaging software program to calculate the tumor volume (Table 13). The percent tumor growth inhibition (% TGI) was calculated as described above in Example 9A.

[2] = test system: PC3 prostate carcinoma cell line; experiment: Antitumor activity in PC3 prostate cancer xenograft model; type: in vivo, human (xenograft in athymic male nude mice); design: key to % TGI (% Tumor Growth Inhibition): TR = Tumor Regression
Method: Tumor cells from the PC3 prostate carcinoma cell line were grown to approximately 80% confluency then trypsinized, collected, washed once in HBSS (Hank's balance salt solution, Mediatech Inc.), then re-suspended in 50% Matrigel® in HBSS at 2×10^7 cells/mL on ice before inoculation into animals. Athymic male nude mice (Nu/Nu (Ncr); Taconic Farms; average weight ˜20 g) were inoculated intramuscularly (IM) with 0.05 mL of this cell suspension, peritibially, in the left hind leg (adjacent to the tibia periosteum). The implants in the animals were assessed twice a week and allowed to grow to a mean tumor volume of approximately 500 mm^3 (Day −2; Table 12). Actual tumor volumes were determined using VisualSonics Vevo 770 high-resolution ultrasound, using two perpendicular axial dimensions.
Animals were sorted randomly and grouped into 6 groups of 8 mice per group (6+2 satellite mice). Treatment groups were vehicle (API buffer), PEGPH20 (157,500 Units/kg, 4.5 mg/kg), low dose dexamethasone (1.25 mg/kg), high dose dexamethasone (5 mg/kg), PEGPH20 (4.5 mg/kg)+low dose dexamethasone (1.25 mg/kg) and PEGPH20 (4.5 mg/kg)+high dose dexamethasone (5 mg/kg). The dose and frequency of the PEGPH20 (or vehicle) intravenous injections was 157,500 Units/kg or approximately 4.5 mg/kg, every 3rd day starting on Day 0 (Days 0, 3, 6, 9, 12) with a total of 5 injections (Q3Dx5) with a dose volume of 0.1 mL. This dosing and frequency regimen was previously shown to inhibit xenograft tumor growth by 34-70%. The doses and frequency of the dexamethasone intraperitonal injections were 1.25 mg/kg at the low dose and 5 mg/kg at the high dose, once a day until Day 13 (QDx13) with a dose volume of 0.1 mL.
The tumor volumes of all mice were measured pre-treatment on Day −2 (average tumor volume of ˜500 mm^3) and on Day 1, 6, 9, 13, 16 and 20 by capturing images using the VisualSonic ultrasound system and using an ultrasound imaging software program to calculate tumor volume (Table 12).

[3] = Day 4, PEGPH20 4.5 mg/kg IV x6 and/or dexamethasone 1.25 mg/kg IP QDx17
[4] = Day 7, PEGPH20 4.5 mg/kg IV x6 and/or dexamethasone 1.25 mg/kg IP QDx17
[5] = Day 11, PEGPH20 4.5 mg/kg IV x6 and/or dexamethasone 1.25 mg/kg IP QDx17
[6] = Day 14, PEGPH20 4.5 mg/kg IV x6 and/or dexamethasone 1.25 mg/kg IP QDx17
[7] = Day 17, PEGPH20 4.5 mg/kg IV x6 and/or dexamethasone 1.25 mg/kg IP QDx17
[8] = Day −1 (pre-treatment), PEGPH20 4.5 mg/kg IV x6 and/or dexamethasone 1.25 mg/kg IP QDx17
[9] = Day −4 (pre-treatment), PEGPH20 4.5 mg/kg IV x6 and/or dexamethasone 1.25 mg/kg IP QDx17
[10] = Day 1, PEGPH20 4.5 mg/kg IV Q3Dx5 and/or dexamethasone 1.25 mg/kg IP QDx13
[11] = Day 6, PEGPH20 4.5 mg/kg IV Q3Dx5 and/or dexamethasone 1.25 mg/kg IP QDx13
[12] = Day 9, PEGPH20 4.5 mg/kg IV Q3Dx5 and/or dexamethasone 1.25 mg/kg IP QDx13
[13] = Day 13, PEGPH20 4.5 mg/kg IV Q3Dx5 and/or dexamethasone 1.25 mg/kg IP QDx13
[14] = Day 16, PEGPH20 4.5 mg/kg IV Q3Dx5 and/or dexamethasone 1.25 mg/kg IP QDx13
[15] = Day 20, PEGPH20 4.5 mg/kg IV Q3Dx5 and/or dexamethasone 1.25 mg/kg IP QDx13
[16] = Day −2 (pre-treatment), PEGPH20 4.5 mg/kg IV Q3Dx5 and/or dexamethasone 1.25 mg/kg IP QDx13

C[C@@H]1C[C@H]2[C@@H]3CCC4=CC(=O)C=C[C@]4(C)[C@@]3(F)[C@@H](O)C[C@]2(C)[C@@]1(O)C(=O)CO [Dexamethasone]
Tumor volume [1, 3]: 463.51 mm^3
Tumor volume ([1]; Day 4, dexamethasone 5 mg/kg IP QDx17, alone or + PEGPH20 4.5 mg/kg IV x6): 396.26 mm^3
Tumor volume [1, 4]: 609.40 mm^3
Tumor volume ([1]; Day 7, dexamethasone 5 mg/kg IP QDx17, alone or + PEGPH20 4.5 mg/kg IV x6): 379.39 mm^3
% TGI (% Tumor Growth Inhibition) ([1]; Day 7, dexamethasone 5 mg/kg alone or + PEGPH20 4.5 mg/kg): 53%
Tumor volume [1, 5]: 732.92 mm^3
Tumor volume ([1]; Day 11, dexamethasone 5 mg/kg IP QDx17, alone or + PEGPH20 4.5 mg/kg IV x6): 481.54 mm^3
% TGI (% Tumor Growth Inhibition) ([1]; Day 11, dexamethasone 5 mg/kg alone or + PEGPH20 4.5 mg/kg): 49%
Tumor volume [1, 6]: 796.84 mm^3
Tumor volume ([1]; Day 14, dexamethasone 5 mg/kg IP QDx17, alone or + PEGPH20 4.5 mg/kg IV x6): 603.82 mm^3
% TGI (% Tumor Growth Inhibition) ([1]; Day 14, dexamethasone 5 mg/kg alone or + PEGPH20 4.5 mg/kg): 46%
Tumor volume [1, 7]: 933.86 mm^3
Tumor volume ([1]; Day 17, dexamethasone 5 mg/kg IP QDx17, alone or + PEGPH20 4.5 mg/kg IV x6): 720.95 mm^3
% TGI (% Tumor Growth Inhibition) ([1]; Day 17, dexamethasone 5 mg/kg alone or + PEGPH20 4.5 mg/kg): 50%
Tumor volume [1, 8]: 312.65 mm^3
Tumor volume ([1]; Day −1 (pre-treatment), dexamethasone 5 mg/kg IP QDx17, alone or + PEGPH20 4.5 mg/kg IV x6): 231.18 mm^3
Tumor volume [1, 9]: 202.85 mm^3
Tumor volume ([1]; Day −4 (pre-treatment), dexamethasone 5 mg/kg IP QDx17, alone or + PEGPH20 4.5 mg/kg IV x6): 197.29 mm^3
Tumor volume [2, 10]: 636.98 mm^3
Tumor volume ([2]; Day 1, dexamethasone 5 mg/kg IP QDx13, alone or + PEGPH20 4.5 mg/kg IV Q3Dx5): 633.84 mm^3
Tumor volume [2, 11]: 727.80 mm^3
Tumor volume ([2]; Day 6, dexamethasone 5 mg/kg IP QDx13, alone or + PEGPH20 4.5 mg/kg IV Q3Dx5): 854.90 mm^3
Tumor volume [2, 12]: 964.35 mm^3
Tumor volume ([2]; Day 9, dexamethasone 5 mg/kg IP QDx13, alone or + PEGPH20 4.5 mg/kg IV Q3Dx5): 995.47 mm^3
Tumor volume [2, 13]: 1202.35 mm^3
Tumor volume ([2]; Day 13, dexamethasone 5 mg/kg IP QDx13, alone or + PEGPH20 4.5 mg/kg IV Q3Dx5): 1211.50 mm^3
Tumor volume [2, 14]: 1401.91 mm^3
Tumor volume ([2]; Day 16, dexamethasone 5 mg/kg IP QDx13, alone or + PEGPH20 4.5 mg/kg IV Q3Dx5): 1455.27 mm^3
Tumor volume [2, 15]: 1792.92 mm^3
Tumor volume ([2]; Day 20, dexamethasone 5 mg/kg IP QDx13, alone or + PEGPH20 4.5 mg/kg IV Q3Dx5): 1840.11 mm^3
Tumor volume [2, 16]: 486.88 mm^3
Tumor volume ([2]; Day −2 (pre-treatment), dexamethasone 5 mg/kg IP QDx13, alone or + PEGPH20 4.5 mg/kg IV Q3Dx5): 516.25 mm^3

B1: PEGPH20 (protein)
chain: LNFRAPPVIPNVPFLWAWNAPSEFCLGKFDEPLDMSLFSFIGSPRINATGQGVTIFYVDRLGYYPYIDSITGVTVNGGIPQKISLQDHLDKAKKDITFYMPVDNLGMAVIDWEEWRPTWARNWKPKDVYKNRSIELVQQQNVQLSLTEATEKAKQEFEKAGKDFLVETIKLGKLLRPNHLWGYYLFPDCYNHHYKKPGYNGSCFNVEIKRNDDLSWLWNESTALYPSIYLNTQQSPVAATLYVRNRVREAIRVSKIPDAKSPLPVFAYTRIVFTDQVLKFLSQDELVYTFGETVALGASGIVIWGTLSIMRSMKSCLLLDNYMETILNPYIINVTLAAKMCSQVLCQEQGVCIRKNWNSSDYLHLNPDNFAIQLEKGGKFTVRGKPTLEDLEQFSEKFYCSCYSTLSCKEKADVKDTDAVDVCIADGVCIDAFLKPPMETEEPQIFY
Tumor volume [1, 3]: 350.44 mm^3
% TGI (% Tumor Growth Inhibition) ([1]; Day 4, PEGPH20 4.5 mg/kg alone or + dexamethasone 1.25 mg/kg): 68%
Tumor volume [1, 4]: 394.40 mm^3
% TGI (% Tumor Growth Inhibition) ([1]; Day 7, PEGPH20 4.5 mg/kg alone or + dexamethasone 1.25 mg/kg): 63%
Tumor volume [1, 5]: 473.50 mm^3
% TGI (% Tumor Growth Inhibition) ([1]; Day 11, PEGPH20 4.5 mg/kg alone or + dexamethasone 1.25 mg/kg): 60%
Tumor volume [1, 6]: 596.96 mm^3
% TGI (% Tumor Growth Inhibition) ([1]; Day 14, PEGPH20 4.5 mg/kg alone or + dexamethasone 1.25 mg/kg): 54%
Tumor volume [1, 7]: 790.16 mm^3
% TGI (% Tumor Growth Inhibition) ([1]; Day 17, PEGPH20 4.5 mg/kg alone or + dexamethasone 1.25 mg/kg): 48%
Tumor volume [1, 8]: 275.75 mm^3
Tumor volume [1, 9]: 196.87 mm^3
Tumor volume [2, 10]: 394.38 mm^3
% TGI (% Tumor Growth Inhibition) ([2]; Day 1, PEGPH20 4.5 mg/kg alone or + dexamethasone 1.25 mg/kg): TR
Tumor volume [2, 11]: 598.39 mm^3
% TGI (% Tumor Growth Inhibition) ([2]; Day 6, PEGPH20 4.5 mg/kg alone or + dexamethasone 1.25 mg/kg): 71%
Tumor volume [2, 12]: 674.83 mm^3
% TGI (% Tumor Growth Inhibition) ([2]; Day 9, PEGPH20 4.5 mg/kg alone or + dexamethasone 1.25 mg/kg): 64%
Tumor volume [2, 13]: 827.53 mm^3
% TGI (% Tumor Growth Inhibition) ([2]; Day 13, PEGPH20 4.5 mg/kg alone or + dexamethasone 1.25 mg/kg): 56%
Tumor volume [2, 14]: 1046.73 mm^3
% TGI (% Tumor Growth Inhibition) ([2]; Day 16, PEGPH20 4.5 mg/kg alone or + dexamethasone 1.25 mg/kg): 47%
Tumor volume [2, 15]: 1310.85 mm^3
% TGI (% Tumor Growth Inhibition) ([2]; Day 20, PEGPH20 4.5 mg/kg alone): 41%
Tumor volume [2, 16]: 491.10 mm^3
